From patent US20250332178A1, “METHODS OF TREATING MYCOBACTERIAL INFECTIONS USING TETRACYCLINE COMPOUNDS” (priority 2018, published 2025)
Values after ≈ are worked out from the molar mass of the structure shown.

Tests used:
M. smegmatis group = experiment: MIC (CLSI broth dilution), RGM isolates; format: cell-based
M. chelonae = experiment: MIC (CLSI broth dilution), RGM isolates; format: cell-based
Mycobacterium abscessus = experiment: MIC by broth microdilution in CAMHB, clinical isolates; format: cell-based
Protocol: (§1) A total of 24 clinical isolates of Mycobacterium abscessus, 22 clinical isolates of Mycobacterium chelonae and 20 clinical isolates of Mycobacterium fortuitum were tested in the study. The study also used the antibiotics tigecycline, doxycycline and amikacin for comparison purposes. […] Amikacin was dissolved in DMSO prior to freezing at −20° C. For susceptibility testing, stock solutions of antibiotic compounds were serially diluted in 50 μL of cation adjusted Mueller-Hinton broth (CAMHB) in polystryrene 96-well round-bottom microtiter plates. To each well, 50 μL of the appropriate mycobacterial cell suspension was added to yield a final concentration of about 1×10^5 CFU/mL. The inoculum used for each isolate was measured by titration in saline with Tween 80 and plating on MH agar. The Mycobacterium abscessus and Mycobacterium fortuitum titer plates were incubated at 37° C. in ambient air for 3-4 days and 5-7 days, respectively. The Mycobacterium chelonae titer plates were incubated at 30° C. in ambient air for 3-5 days. Each isolate was tested at least in duplicate. The MIC was defined as the lowest concentration of antimicrobial agent yielding no visible turbidity.

Mycobacterium fortuitum = experiment: as above; format: cell-based
Protocol: as §1

Mycobacterium chelonae = experiment: as above; format: cell-based
Protocol: as §1

M. abscessus complex = experiment: MIC (CLSI broth dilution), RGM isolates; format: cell-based
M. fortuitum group = experiment: MIC (CLSI broth dilution), RGM isolates; format: cell-based
M. mucogenium group = experiment: MIC (CLSI broth dilution), RGM isolates; format: cell-based
M. immunogenum group = experiment: MIC (CLSI broth dilution), RGM isolates; format: cell-based; details: M. immunogenum
[1] = system: rapid-growing mycobacteria (RGM) isolates; experiment: MIC (CLSI broth dilution), all RGM isolates; format: cell-based, nontuberculous mycobacteria; details: all 50 RGM isolates
[2] = 24 clinical isolates (tigecycline: subset N=14)

## C[C@H]1c2cccc(O)c2C(=O)C2=C(O)[C@]3(O)C(=O)C(C(N)=O)=C(O)[C@@H](N(C)C)[C@@H]3[C@@H](O)[C@@H]21 [Doxycycline, doxycycline]
M. smegmatis group; isolate 49, M. smegmatis group, M. goodii
  MIC: ≤0.12 µg/mL
M. smegmatis group; isolate 50, M. smegmatis group, M. wolinskyi
  MIC: 1 µg/mL (≈ 2.25 µM)
M. chelonae; isolate 18, M. chelonae
  MIC: >8 µg/mL
M. chelonae; isolate 19, M. chelonae
  MIC: >8 µg/mL
M. chelonae; isolate 20, M. chelonae
  MIC: >8 µg/mL
M. chelonae; isolate 21, M. chelonae
  MIC: >8 µg/mL
M. chelonae; isolate 22, M. chelonae
  MIC: >8 µg/mL
Mycobacterium abscessus; [2]
  MIC50: >64 µg/mL
  MIC90: >64 µg/mL
Mycobacterium abscessus; isolate No. 1, BB2
  MIC: >64 µg/mL
Mycobacterium abscessus; isolate No. 2, BB4
  MIC: 2 µg/mL (≈ 4.5 µM)
Mycobacterium abscessus; isolate No. 3, 5922
  MIC: 16 µg/mL (≈ 36 µM)
Mycobacterium abscessus; isolate No. 4, BB3
  MIC: 4 µg/mL (≈ 9 µM)
Mycobacterium abscessus; isolate No. 5, BB6
  MIC: 16 µg/mL (≈ 36 µM)
Mycobacterium abscessus; isolate No. 6, 5908
  MIC: >64 µg/mL
Mycobacterium abscessus; isolate No. 7, BB7
  MIC: 0.25 µg/mL (≈ 0.563 µM)
Mycobacterium abscessus; isolate No. 8, 6031
  MIC: 2 µg/mL (≈ 4.5 µM)
Mycobacterium abscessus; isolate No. 9, 5785
  MIC: 2 µg/mL (≈ 4.5 µM)
Mycobacterium abscessus; isolate No. 10, BB8
  MIC: >64 µg/mL
Mycobacterium abscessus; isolate No. 11, 6111
  MIC: >64 µg/mL
Mycobacterium abscessus; isolate No. 12, 6005
  MIC: >64 µg/mL
Mycobacterium abscessus; isolate No. 13, 5605
  MIC: >64 µg/mL
Mycobacterium abscessus; isolate No. 14, 5931
  MIC: 16 µg/mL (≈ 36 µM)
Mycobacterium abscessus; isolate No. 15, BB1
  MIC: >64 µg/mL
Mycobacterium abscessus; isolate No. 16, BB5
  MIC: >64 µg/mL
Mycobacterium abscessus; isolate No. 17, 5812
  MIC: >64 µg/mL
Mycobacterium abscessus; isolate No. 18, 5901
  MIC: >64 µg/mL
Mycobacterium abscessus; isolate No. 19, 5960
  MIC: 8 µg/mL (≈ 18 µM)
Mycobacterium abscessus; isolate No. 20, 6142
  MIC: >64 µg/mL
Mycobacterium abscessus; isolate No. 21, 5922
  MIC: 32 µg/mL (≈ 72 µM)
Mycobacterium abscessus; isolate No. 22, LT 949
  MIC: >64 µg/mL
Mycobacterium abscessus; isolate No. 23, 6025
  MIC: >64 µg/mL
Mycobacterium abscessus; isolate No. 24, 6153
  MIC: >64 µg/mL
Mycobacterium fortuitum; 20 clinical isolates
  MIC50: 8 µg/mL (≈ 18 µM)
  MIC90: 64 µg/mL (≈ 144 µM)
Mycobacterium fortuitum; isolate No. 1, 3349
  MIC: 16 µg/mL (≈ 36 µM)
Mycobacterium fortuitum; isolate No. 2, 3499
  MIC: 0.06 µg/mL (≈ 0.135 µM)
Mycobacterium fortuitum; isolate No. 3, 2797
  MIC: >64 µg/mL
Mycobacterium fortuitum; isolate No. 4, 32
  MIC: 0.125 µg/mL (≈ 0.281 µM)
Mycobacterium fortuitum; isolate No. 5, 33
  MIC: 0.125 µg/mL (≈ 0.281 µM)
Mycobacterium fortuitum; isolate No. 6, 3489
  MIC: 8 µg/mL (≈ 18 µM)
Mycobacterium fortuitum; isolate No. 7, 3491
  MIC: <0.06 µg/mL
Mycobacterium fortuitum; isolate No. 8, 54
  MIC: <0.06 µg/mL
Mycobacterium fortuitum; isolate No. 9, 38
  MIC: 0.5 µg/mL (≈ 1.13 µM)
Mycobacterium fortuitum; isolate No. 10, 36
  MIC: 0.125 µg/mL (≈ 0.281 µM)
Mycobacterium fortuitum; isolate No. 11, 3480
  MIC: 16 µg/mL (≈ 36 µM)
Mycobacterium fortuitum; isolate No. 12, 3126
  MIC: 16 µg/mL (≈ 36 µM)
Mycobacterium fortuitum; isolate No. 13, 3579
  MIC: 16 µg/mL (≈ 36 µM)
Mycobacterium fortuitum; isolate No. 14, 7484
  MIC: 64 µg/mL (≈ 144 µM)
Mycobacterium fortuitum; isolate No. 15, 3488
  MIC: 32 µg/mL (≈ 72 µM)
Mycobacterium fortuitum; isolate No. 16, 3276
  MIC: 0.25 µg/mL (≈ 0.563 µM)
Mycobacterium fortuitum; isolate No. 17, 3442
  MIC: 0.25 µg/mL (≈ 0.563 µM)
Mycobacterium fortuitum; isolate No. 18, 3316
  MIC: 32 µg/mL (≈ 72 µM)
Mycobacterium fortuitum; isolate No. 19, 3490
  MIC: 16 µg/mL (≈ 36 µM)
Mycobacterium fortuitum; isolate No. 20, 2491
  MIC: >64 µg/mL
Mycobacterium chelonae; 22 clinical isolates
  MIC50: 32 µg/mL (≈ 72 µM)
  MIC90: 64 µg/mL (≈ 144 µM)
Mycobacterium chelonae; isolate No. 1, MC 7323
  MIC: 64 µg/mL (≈ 144 µM)
Mycobacterium chelonae; isolate No. 2, MC 7534
  MIC: 32 µg/mL (≈ 72 µM)
Mycobacterium chelonae; isolate No. 3, MC 7368
  MIC: 64 µg/mL (≈ 144 µM)
Mycobacterium chelonae; isolate No. 4, MC 7514
  MIC: 32 µg/mL (≈ 72 µM)
Mycobacterium chelonae; isolate No. 5, MC 7584
  MIC: 64 µg/mL (≈ 144 µM)
Mycobacterium chelonae; isolate No. 6, MC 7192
  MIC: 16 µg/mL (≈ 36 µM)
Mycobacterium chelonae; isolate No. 7, MC 7466
  MIC: 32 µg/mL (≈ 72 µM)
Mycobacterium chelonae; isolate No. 8, MC 7533
  MIC: 64 µg/mL (≈ 144 µM)
Mycobacterium chelonae; isolate No. 9, MC 7579
  MIC: 16 µg/mL (≈ 36 µM)
Mycobacterium chelonae; isolate No. 10, MC 7614
  MIC: 64 µg/mL (≈ 144 µM)
Mycobacterium chelonae; isolate No. 11, MC 7414
  MIC: 32 µg/mL (≈ 72 µM)
Mycobacterium chelonae; isolate No. 12, MC 7313
  MIC: 32 µg/mL (≈ 72 µM)
Mycobacterium chelonae; isolate No. 13, MC 7281
  MIC: 64 µg/mL (≈ 144 µM)
Mycobacterium chelonae; isolate No. 14, MC 7328
  MIC: 16 µg/mL (≈ 36 µM)
Mycobacterium chelonae; isolate No. 15, MC 7294
  MIC: 32 µg/mL (≈ 72 µM)
Mycobacterium chelonae; isolate No. 16, MC 14-S-03
  MIC: 64 µg/mL (≈ 144 µM)
Mycobacterium chelonae; isolate No. 17, MC 14-S-04
  MIC: 32 µg/mL (≈ 72 µM)
Mycobacterium chelonae; isolate No. 18, MC 14-S-05
  MIC: 32 µg/mL (≈ 72 µM)
Mycobacterium chelonae; isolate No. 19, MC 14-S-06
  MIC: 64 µg/mL (≈ 144 µM)
Mycobacterium chelonae; isolate No. 20, MC 14-S-07
  MIC: 32 µg/mL (≈ 72 µM)
Mycobacterium chelonae; isolate No. 21, MC 35757
  MIC: 32 µg/mL (≈ 72 µM)
Mycobacterium chelonae; isolate No. 22, MC 7302
  MIC: 64 µg/mL (≈ 144 µM)
M. abscessus complex; isolate 1, M. abscessus complex, erm gene type MAB30
  MIC: >8 µg/mL
M. abscessus complex; isolate 2, M. abscessus complex, erm gene type MAB30
  MIC: >8 µg/mL
M. abscessus complex; isolate 3, M. abscessus complex, erm gene type MAB30
  MIC: >8 µg/mL
M. abscessus complex; isolate 4, M. abscessus complex, erm gene type massiliense
  MIC: >8 µg/mL
M. abscessus complex; isolate 5, M. abscessus complex, erm gene type massiliense/subsp. abs hybrid
  MIC: >8 µg/mL
M. abscessus complex; isolate 6, M. abscessus complex, erm gene type Type 1 abscessus
  MIC: >8 µg/mL
M. abscessus complex; isolate 7, M. abscessus complex, erm gene type Type 1 abscessus
  MIC: >8 µg/mL
M. abscessus complex; isolate 8, M. abscessus complex, erm gene type Type 1 abscessus
  MIC: >8 µg/mL
M. abscessus complex; isolate 9, M. abscessus complex, erm gene type Type 1 abscessus
  MIC: >8 µg/mL
M. abscessus complex; isolate 10, M. abscessus complex, erm gene type Type 1 abscessus
  MIC: >8 µg/mL
M. abscessus complex; isolate 11, M. abscessus complex, erm gene type Type 6 abscessus
  MIC: >8 µg/mL
M. abscessus complex; isolate 12, M. abscessus complex, erm gene type Type 6 abscessus
  MIC: >8 µg/mL
M. abscessus complex; isolate 13, M. abscessus complex, erm gene type Type 6 abscessus
  MIC: >8 µg/mL
M. abscessus complex; isolate 14, M. abscessus complex, erm gene type Type 6 abscessus
  MIC: 8 µg/mL (≈ 18 µM)
M. abscessus complex; isolate 15, M. abscessus complex, erm gene type Type 7 abscessus
  MIC: >8 µg/mL
M. abscessus complex; isolate 16, M. abscessus complex, erm gene type Type 7 abscessus
  MIC: >8 µg/mL
M. abscessus complex; isolate 17, M. abscessus complex, erm gene type Type 8 abscessus
  MIC: >8 µg/mL
M. fortuitum group; isolate 23, M. fortuitum group, M. fortuitum
  MIC: ≤0.12 µg/mL
M. fortuitum group; isolate 24, M. fortuitum group, M. fortuitum
  MIC: 0.25 µg/mL (≈ 0.563 µM)
M. fortuitum group; isolate 25, M. fortuitum group, M. fortuitum
  MIC: >8 µg/mL
M. fortuitum group; isolate 26, M. fortuitum group, M. porcinum
  MIC: 4 µg/mL (≈ 9 µM)
M. fortuitum group; isolate 27, M. fortuitum group, M. porcinum
  MIC: 8 µg/mL (≈ 18 µM)
M. fortuitum group; isolate 28, M. fortuitum group, M. porcinum/M. boenickei
  MIC: 2 µg/mL (≈ 4.5 µM)
M. fortuitum group; isolate 29, M. fortuitum group, M. porcinum/M. boenickei
  MIC: >8 µg/mL
M. fortuitum group; isolate 30, M. fortuitum group, M. porcinum/M. boenickei
  MIC: >8 µg/mL
M. fortuitum group; isolate 31, M. fortuitum group, M. senegalense
  MIC: ≤0.12 µg/mL
M. fortuitum group; isolate 32, M. fortuitum group, M. senegalense
  MIC: ≤0.12 µg/mL
M. fortuitum group; isolate 33, M. fortuitum group, M. senegalense
  MIC: ≤0.12 µg/mL
M. fortuitum group; isolate 34, M. fortuitum group, M. senegalense
  MIC: ≤0.12 µg/mL
M. mucogenium group; isolate 39, M. mucogenicum group, M. mucogenicum
  MIC: 0.25 µg/mL (≈ 0.563 µM)
M. mucogenium group; isolate 40, M. mucogenicum group, M. mucogenicum
  MIC: ≤0.12 µg/mL
M. mucogenium group; isolate 41, M. mucogenicum group, M. mucogenicum
  MIC: ≤0.12 µg/mL
M. mucogenium group; isolate 42, M. mucogenicum group, M. mucogenicum
  MIC: ≤0.12 µg/mL
M. mucogenium group; isolate 43, M. mucogenicum group, M. phocaicum
  MIC: ≤0.12 µg/mL
M. mucogenium group; isolate 44, M. mucogenicum group, M. phocaicum
  MIC: >8 µg/mL
M. mucogenium group; isolate 45, M. mucogenicum group, M. phocaicum
  MIC: >8 µg/mL
M. mucogenium group; isolate 46, M. mucogenicum group, M. phocaicum
  MIC: >8 µg/mL
M. mucogenium group; isolate 47, M. mucogenicum group, M. phocaicum
  MIC: 0.25 µg/mL (≈ 0.563 µM)
M. mucogenium group; isolate 48, M. mucogenicum group, M. phocaicum
  MIC: 4 µg/mL (≈ 9 µM)
M. immunogenum group; isolate 35, M. immunogenum group
  MIC: >8 µg/mL
M. immunogenum group; isolate 36, M. immunogenum group
  MIC: 1 µg/mL (≈ 2.25 µM)
M. immunogenum group; isolate 37, M. immunogenum group
  MIC: >8 µg/mL
M. immunogenum group; isolate 38, M. immunogenum group
  MIC: >8 µg/mL
[1]
  MIC50: >8 µg/mL
  MIC90: >8 µg/mL
